In patent publication US20250230193A1, “CYCLIC COMPOUND HAVING SELECTIVE KRAS INHIBITORY EFFECT ON HRAS AND NRAS” (CHUGAI SEIYAKU KABUSHIKI KAISHA, priority 2022, published 2025):

Experiments:
[1] = target: GDP-bound NRAS wild-type protein (Homo sapiens, UniProt P01111); test: Binding to NRAS by surface plasmon resonance (SPR), Single Cycle Kinetics; settings: KD ratio, GDP-bound NRAS wild-type vs GDP-bound KRAS wild-type, SPR
[2] = target: GDP-bound HRAS wild-type protein (Homo sapiens, UniProt P01112); test: Binding to HRAS by surface plasmon resonance (SPR), Single Cycle Kinetics; settings: KD ratio, GDP-bound HRAS wild-type vs GDP-bound KRAS wild-type, SPR
GDP-bound HRAS wild-type protein, sequence (P01112 whole entry): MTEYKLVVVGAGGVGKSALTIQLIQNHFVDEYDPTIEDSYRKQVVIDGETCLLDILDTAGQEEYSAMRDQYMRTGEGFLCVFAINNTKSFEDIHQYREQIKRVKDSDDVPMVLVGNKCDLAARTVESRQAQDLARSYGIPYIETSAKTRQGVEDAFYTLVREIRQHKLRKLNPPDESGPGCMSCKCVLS

GDP-bound NRAS wild-type protein, sequence (P01111 whole entry): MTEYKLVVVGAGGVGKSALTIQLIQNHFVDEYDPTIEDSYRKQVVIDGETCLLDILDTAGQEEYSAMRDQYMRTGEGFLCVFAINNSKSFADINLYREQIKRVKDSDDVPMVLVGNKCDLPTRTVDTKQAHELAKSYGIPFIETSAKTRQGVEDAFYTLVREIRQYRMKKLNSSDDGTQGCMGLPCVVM

SMILES	NRAS/KRAS (ratio of KD value with respect to NRAS to KD value with respect to KRAS) [1]	HRAS/KRAS (ratio of KD value with respect to HRAS to KD value with respect to KRAS) [2]
CC[C@H](C)[C@@H]1NC(=O)[C@H](CC(C)C)N(C)C(=O)C[C@@H](C(=O)N2CCOCC2)N(C)C(=O)[C@H](C2CCCC2)N(C)C(=O)C2(CCC2)NC(=O)[C@@H]2C[C@@H](OCC3CCCC3)CN2C(=O)[C@H](CCc2cc(F)c(C(F)(F)F)c(F)c2)NC(=O)CN(C)C(=O)[C@H](Cc2ccc(C(F)(F)F)cc2)N2CCCC[C@@H](C2=O)N(C)C(=O)CN(C)C1=O [PP1001]	B (a compound having 3 or more and less than 10 is denoted as B)	B (a compound having 3 or more and less than 10 is denoted as B)
CC[C@H](C)[C@@H]1NC(=O)[C@H](CC(C)C)N(C)C(=O)C[C@@H](C(=O)N2CCOCC2)N(C)C(=O)[C@H](C2CCCC2)N(C)C(=O)C2(CCC2)NC(=O)[C@@H]2C[C@@H](OCC(F)F)CN2C(=O)[C@H](CCc2cc(F)c(C(F)(F)F)c(F)c2)NC(=O)CN(C)C(=O)[C@H](Cc2ccc(C(F)(F)F)cc2)N2CCCC[C@@H](C2=O)N(C)C(=O)CN(C)C1=O [PP1002]	B (a compound having 3 or more and less than 10 is denoted as B)	B (a compound having 3 or more and less than 10 is denoted as B)
CC[C@H](C)[C@@H]1NC(=O)[C@H](CC(C)C)N(C)C(=O)C[C@@H](C(=O)N2CCOCC2)N(C)C(=O)[C@H](C2CCCC2)N(C)C(=O)C2(CCC2)NC(=O)[C@@H]2C[C@@H](OC)CN2C(=O)[C@H](CCc2cc(F)c(C(F)(F)F)c(F)c2)NC(=O)CN(C)C(=O)[C@H](Cc2ccc(C(F)(F)F)cc2)N2CCCC[C@@H](C2=O)N(C)C(=O)CN(C)C1=O [PP1003]	C (A compound having a KD ratio of 0.1 or more and less than 3 is denoted as C)	B (a compound having 3 or more and less than 10 is denoted as B)
CCCCO[C@@H]1C[C@H]2C(=O)NC3(CCC3)C(=O)N(C)[C@@H](C3CCCC3)C(=O)N(C)[C@H](C(=O)N3CCOCC3)CC(=O)N(C)[C@@H](CC(C)C)C(=O)N[C@@H]([C@@H](C)CC)C(=O)N(C)CC(=O)N(C)[C@H]3CCCCCN(C3=O)[C@@H](Cc3ccc(C(F)(F)F)cc3)C(=O)N(C)CC(=O)N[C@@H](CCc3cc(F)c(C(F)(F)F)c(F)c3)C(=O)N2C1 [PP1004]	B (a compound having 3 or more and less than 10 is denoted as B)	B (a compound having 3 or more and less than 10 is denoted as B)
CC[C@H](C)[C@@H]1NC(=O)[C@H](CC(C)C)N(C)C(=O)C[C@@H](C(=O)N2CCOCC2)N(C)C(=O)[C@H](C2CCCC2)N(C)C(=O)C2(CCC2)NC(=O)[C@@H]2C[C@@H](OCC3CC3)CN2C(=O)[C@H](CCc2cc(F)c(C(F)(F)F)c(F)c2)NC(=O)CN(C)C(=O)[C@H](Cc2ccc(C(F)(F)F)cc2)N2CCCCC[C@@H](C2=O)N(C)C(=O)CN(C)C1=O [PP1005]	A (a compound having 10 or more and less than 20 is denoted as A)	A (a compound having 10 or more and less than 20 is denoted as A)
CC[C@H](C)[C@@H]1NC(=O)[C@H](CC(C)C)N(C)C(=O)C[C@@H](C(=O)N2CCOCC2)N(C)C(=O)[C@H](C2CCCC2)N(C)C(=O)C2(CCC2)NC(=O)[C@@H]2C[C@@H](OCC(F)F)CN2C(=O)[C@H](CCc2cc(F)c(C(F)(F)F)c(F)c2)NC(=O)CN(C)C(=O)[C@H](Cc2ccc(C(F)(F)F)cc2)N2CCCCC[C@@H](C2=O)N(C)C(=O)CN(C)C1=O [PP1006]	B (a compound having 3 or more and less than 10 is denoted as B)	B (a compound having 3 or more and less than 10 is denoted as B)
CCCCO[C@H]1CCN2C(=O)[C@H](CCc3cc(F)c(C(F)(F)F)c(F)c3)NC(=O)CN(C)C(=O)[C@H](Cc3ccc(C(F)(F)F)cc3)N3CCCCC[C@@H](C3=O)N(C)C(=O)CN(C)C(=O)[C@H]([C@@H](C)CC)NC(=O)[C@H](CC(C)C)N(C)C(=O)C[C@@H](C(=O)N3CCOCC3)N(C)C(=O)[C@H](C3CCCC3)N(C)C(=O)C3(CCC3)NC(=O)[C@H]12 [PP1009]	B (a compound having 3 or more and less than 10 is denoted as B)	B (a compound having 3 or more and less than 10 is denoted as B)
CC[C@H](C)[C@@H]1NC(=O)[C@H](CC(C)C)N(C)C(=O)C[C@@H](C(=O)N2CCOCC2)N(C)C(=O)[C@H](C2CCCC2)N(C)C(=O)C2(CCC2)NC(=O)[C@@H]2[C@@H](OCC3CC3)CCN2C(=O)[C@H](CCc2cc(F)c(C(F)(F)F)c(F)c2)NC(=O)CN(C)C(=O)[C@H](Cc2ccc(C(F)(F)F)cc2)N2CCCCC[C@@H](C2=O)N(C)C(=O)CN(C)C1=O [PP1010]	B (a compound having 3 or more and less than 10 is denoted as B)	B (a compound having 3 or more and less than 10 is denoted as B)
CC[C@H](C)[C@@H]1NC(=O)[C@H](CC(C)C)N(C)C(=O)C[C@@H](C(=O)N2CCOCC2)N(C)C(=O)[C@H](C2CCCC2)N(C)C(=O)C2(CCC2)NC(=O)[C@@H]2[C@@H](OCC3CCCC3)CCN2C(=O)[C@H](CCc2cc(F)c(C(F)(F)F)c(F)c2)NC(=O)CN(C)C(=O)[C@H](Cc2ccc(C(F)(F)F)cc2)N2CCCCC[C@@H](C2=O)N(C)C(=O)CN(C)C1=O [PP1011]	A (a compound having 10 or more and less than 20 is denoted as A)	B (a compound having 3 or more and less than 10 is denoted as B)
CC[C@H](C)[C@@H]1NC(=O)[C@H](CC(C)C)N(C)C(=O)C[C@@H](C(=O)N2CCOCC2)N(C)C(=O)[C@H](C2CCCC2)N(C)C(=O)C2(CCC2)NC(=O)[C@@H]2[C@@H](OCC(F)F)CCN2C(=O)[C@H](CCc2cc(F)c(C(F)(F)F)c(F)c2)NC(=O)CN(C)C(=O)[C@H](Cc2ccc(C(F)(F)F)cc2)N2CCCCC[C@@H](C2=O)N(C)C(=O)CN(C)C1=O [PP1012]	A (a compound having 10 or more and less than 20 is denoted as A)	B (a compound having 3 or more and less than 10 is denoted as B)
CCCCO[C@@H]1C[C@H]2C(=O)NC3(CCC3)C(=O)N(C)[C@@H](C3CCCC3)C(=O)N(C)[C@H](C(=O)N3CCOCC3)CC(=O)N(C)[C@@H](CC(C)C)C(=O)N[C@@H]([C@@H](C)CC)C(=O)N(C)CC(=O)N(C)[C@H]3CCCCN(C3=O)[C@@H](Cc3ccc(C(F)(F)F)cc3)C(=O)N(C)CC(=O)N[C@@H](CCc3cc(F)c(C(F)(F)F)c(F)c3)C(=O)N2C1 [PP1013]	C (A compound having a KD ratio of 0.1 or more and less than 3 is denoted as C)	C (A compound having a KD ratio of 0.1 or more and less than 3 is denoted as C)
CC[C@H](C)[C@@H]1NC(=O)[C@H](CC(C)C)N(C)C(=O)C[C@@H](C(=O)N2CCOCC2)N(C)C(=O)[C@H](C2CCCC2)N(C)C(=O)C2(CCC2)NC(=O)[C@@H]2C[C@@H](OCC3CC3)CN2C(=O)[C@H](CCc2cc(F)c(C(F)(F)F)c(F)c2)NC(=O)CN(C)C(=O)[C@H](Cc2ccc(C(F)(F)F)cc2)N2CCCC[C@@H](C2=O)N(C)C(=O)CN(C)C1=O [PP1014]	C (A compound having a KD ratio of 0.1 or more and less than 3 is denoted as C)	C (A compound having a KD ratio of 0.1 or more and less than 3 is denoted as C)
CC[C@H](C)[C@@H]1NC(=O)[C@H](CC(C)C)N(C)C(=O)C[C@@H](C(=O)N2CCOCC2)N(C)C(=O)[C@H](C2CCCC2)N(C)C(=O)C2(CCC2)NC(=O)[C@@H]2C[C@@H](OCC3CCCC3)CN2C(=O)[C@H](CCc2cc(F)c(C(F)(F)F)c(F)c2)NC(=O)CN(C)C(=O)[C@H](Cc2ccc(C(F)(F)F)cc2)N2CCCC[C@@H](C2=O)N(C)C(=O)CN(C)C1=O [PP1015]	C (A compound having a KD ratio of 0.1 or more and less than 3 is denoted as C)	C (A compound having a KD ratio of 0.1 or more and less than 3 is denoted as C)
CC[C@H](C)[C@@H]1NC(=O)[C@H](CC(C)C)N(C)C(=O)C[C@@H](C(=O)N2CCOCC2)N(C)C(=O)[C@H](C2CCCC2)N(C)C(=O)C2(CCC2)NC(=O)[C@@H]2C[C@@H](OC)CN2C(=O)[C@H](CCc2cc(F)c(C(F)(F)F)c(F)c2)NC(=O)CN(C)C(=O)[C@H](Cc2ccc(C(F)(F)F)cc2)N2CCCCC[C@@H](C2=O)N(C)C(=O)CN(C)C1=O [PP1016]	A (a compound having 10 or more and less than 20 is denoted as A)	B (a compound having 3 or more and less than 10 is denoted as B)
CCO[C@@H]1C[C@H]2C(=O)NC3(CCCC3)C(=O)N(C)[C@@H](C3CCCC3)C(=O)N(C)[C@H](C(=O)N(C)C)CC(=O)N(C)[C@@H](CC(C)C)C(=O)N[C@@H]([C@@H](C)CC)C(=O)N(C)CC(=O)N(C)[C@H]3C[C@@H](C)CCN(C3=O)[C@@H](Cc3ccc(C(F)(F)F)cc3)C(=O)N(C)CC(=O)N[C@@H](CCc3cc(F)c(C(F)(F)F)c(F)c3)C(=O)N2C1 [PP1017]	C (A compound having a KD ratio of 0.1 or more and less than 3 is denoted as C)	B (a compound having 3 or more and less than 10 is denoted as B)
